Measured values as given in publication PMC9127750, “Structure-based design of CDC42 effector interaction inhibitors for the treatment of cancer” (Cell reports, 2022).

Tested on: WM3248 melanoma cells, 486 antibodies
Experiment: Reverse phase protein arrays (RPPA);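 for RPPA ACC1.R.C: ratio of treated to vehicle (0 µM) normalized linear protein signal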;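 for RPPA AMPK.a2 pS345.R.V: ratio of treated to vehicle (0 µM) normalized linear protein signal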;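 for RPPA AMPKa pT172.R.C: ratio of treated to vehicle (0 µM) normalized linear protein signal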;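 for RPPA ASNS.R.V: ratio of treated to vehicle (0 µM) normalized linear protein signal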;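 for RPPA AceCS1.R.V: ratio of treated to vehicle (0 µM) normalized linear protein signal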;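 for RPPA Akt1.R.V: ratio of treated to vehicle (0 µM) normalized linear protein signal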;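 for RPPA Atg5.R.C: ratio of treated to vehicle (0 µM) normalized linear protein signal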;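 for RPPA Bim.R.V: ratio of treated to vehicle (0 µM) normalized linear protein signal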
Type: cell-based, Human
Details: 5 uM
From the text: Pellets were snap frozen in liquid nitrogen and shipped to MD Anderson Cancer Center core RPPA facility for RPPA analysis (Table S5). Three biological replicates for each sample were generated.
Nomenclatures on the RPPA heatmaps: name_of_antibody.species_of_antibody.status_of_antibody. V - antibody validated; C - validation of antibody in progress; Q - antibody nonspecific; E – under evaluation; antibodies raised in M - mouse, G - goat, R - rabbit, or T - rat.

## CN(C)c1cccc(Nc2cc(-c3ccccc3)nc(C3CCNCC3)n2)c1 [ARN22089, N1,N1-dimethyl-N3-(6-phenyl-2-(piperidin-4-yl)pyrimidin-4-yl)benzene-1,3-diamine]
  RPPA MYH11.R.C Average: 0.914
  RPPA Myosin.IIa.R.C Average: 0.843
  RPPA Myosin.IIa_pS1943.R.V Average: 0.844
  RPPA Myt1.R.C Average: 1.051
  RPPA N.Cadherin.R.V Average: 1.019
  RPPA N.Ras.M.V Average: 1.035
  RPPA NAPSIN.A.R.C Average: 1.080
  RPPA NDRG1_pT346.R.V Average: 0.957
  RPPA NDUFB4.R.V Average: 0.959
  RPPA NRF2.R.C Average: 1.058
  RPPA Notch1.R.V Average: 0.994
  RPPA Notch1.cleaved.R.V Average: 0.989
  RPPA P.Cadherin.R.C Average: 1.050
  RPPA PAI.1.M.V Average: 0.977
  RPPA PAICS.R.C Average: 0.899
  RPPA PAK1.R.V Average: 1.006
  RPPA PAK4.R.V Average: 0.986
  RPPA PAK_pT423_T402.R.C Average: 0.921
  RPPA PAR.R.C Average: 1.327
  RPPA PARG.R.C Average: 1.012
  RPPA PARP.R.V Average: 1.023
  RPPA PAX6.R.V Average: 1.030
  RPPA PAX8.R.C Average: 0.962
  RPPA PCNA.M.C Average: 0.948
  RPPA PD.1.R.V Average: 0.992
  RPPA PD.L1.R.C Average: 1.064
  RPPA PDH.M.V Average: 1.049
  RPPA PDHA1.R.V Average: 1.079
  RPPA PDHK1.R.C Average: 1.057
  RPPA PDK1_pS241.R.V Average: 1.138
  RPPA PEA.15.R.V Average: 0.904
  RPPA PEA.15_pS116.R.V Average: 1.018
  RPPA PERK.R.V Average: 0.925
  RPPA PGM1.R.V Average: 0.979
  RPPA PHGDH.R.C Average: 1.081
  RPPA PHLPP.R.V Average: 0.922
  RPPA PI3K.p85.R.C Average: 0.987
  RPPA PI3K.p110.a.R.C Average: 1.057
  RPPA PI3K.p110.b.M.C Average: 0.980
  RPPA PKA.a.R.V Average: 1.013
  RPPA PKC.a.b.II_pT638_T641.R.V Average: 0.925
  RPPA PKC.b.II_pS660.R.V Average: 1.162
  RPPA PKCa.R.V Average: 1.462
  RPPA PKM2.R.C Average: 0.954
  RPPA PLC.gamma1.R.V Average: 0.970
  RPPA PLC.gamma1_pS1248.R.V Average: 1.060
  RPPA PLC.gamma2_pY759.R.V Average: 0.976
  RPPA PLK1.R.C Average: 0.920
  RPPA PMS2.R.V Average: 0.940
  RPPA PR.R.V Average: 1.032
  RPPA PRAS40.M.C Average: 0.991
  RPPA PRAS40_pT246.R.V Average: 1.028
  RPPA PRC1_pT481.R.C Average: 0.944
  RPPA Paxillin.R.C Average: 0.977
  RPPA Pdcd4.R.C Average: 1.156
  RPPA Porin.M.V Average: 0.936
  RPPA p21.R.C Average: 1.048
  RPPA p27.Kip1.R.C Average: 0.948
  RPPA p27_pT157.R.C Average: 0.943
  RPPA p27_pT198.R.V Average: 1.103
  RPPA p38.MAPK.R.V Average: 1.062
  RPPA p38.MAPK._pT180_Y182.R.V Average: 1.580
  RPPA p38.a.M.V Average: 0.984
  RPPA p44.42.MAPK.R.V Average: 0.980
  RPPA p53.R.C Average: 1.052
  RPPA p70.S6K1.R.V Average: 0.998
  RPPA p70.S6K_pT389.R.V Average: 1.143
  RPPA p90RSK_pT573.R.C Average: 0.930
5W1
  RPPA A.Raf.R.V: 1.057
  RPPA A.Raf_pS299.R.C: 0.952
  RPPA ACC1.R.C: 1.201
  RPPA ACC_pS79.R.V: 1.224
  RPPA ACLY_pS455.R.V: 1.273
  RPPA ACSL1.R.V: 0.847
  RPPA ACVRL1.R.C: 0.930
  RPPA ADAR1.M.V: 0.910
  RPPA ALKBH5.R.V: 0.866
  RPPA AMPK.a2_pS345.R.V: 1.146
  RPPA AMPKa.R.C: 1.108
  RPPA AMPKa_pT172.R.C: 2.494
  RPPA AR.R.V: 1.056
  RPPA ARID1A.R.C: 0.880
  RPPA ASNS.R.V: 0.847
  RPPA ATM.R.V: 1.285
  RPPA ATM_pS1981.R.V: 0.930
  RPPA ATP5A.M.C: 0.983
  RPPA ATP5H.R.V: 0.890
  RPPA ATR.R.V: 0.910
  RPPA ATRX.R.C: 1.060
  RPPA ATR_pS428.R.C: 1.111
  RPPA AceCS1.R.V: 0.974
  RPPA Akt1.R.V: 1.150
  RPPA Akt1_pS473.R.V: 1.251
  RPPA Akt2.R.V: 1.156
  RPPA Akt2_pS474.R.C: 1.400
  RPPA Akt.R.V: 1.121
  RPPA Akt_pS473.R.V: 1.390
  RPPA Akt_pT308.R.V: 1.046
  RPPA Ambra1_pS52.R.C: 0.943
  RPPA Annexin.VII.M.V: 0.883
  RPPA Atg4B.R.C: 1.033
  RPPA Atg5.R.C: 1.001
  RPPA Atg7.R.V: 0.986
  RPPA Aurora.A.R.C: 0.575
  RPPA Aurora.ABC_pT288_pT232_pT198.R.C: 0.881
  RPPA Aurora.B.R.V: 0.940
  RPPA Axl.R.V: 1.329
  RPPA B7.H3.R.C: 0.986
  RPPA B7.H4.R.C: 1.110
  RPPA B.Raf.R.C: 1.153
  RPPA BAP1.M.V: 0.943
  RPPA BCL2A1.R.V: 1.060
  RPPA BMK1.Erk5_pT218_Y220.R.V: 0.857
  RPPA BRCA1.M.C: 0.962
  RPPA BRD4.R.V: 0.959
  RPPA Bad_pS112.R.V: 1.171
  RPPA Bak.R.C: 1.077
  RPPA Bax.R.V: 0.955
  RPPA Bcl2.R.C: 0.855
  RPPA Beclin.R.C: 0.863
  RPPA BiP.GRP78.M.C: 0.936
  RPPA Bim.R.V: 1.056
  RPPA X4E.BP1.R.V: 1.448
  RPPA X4E.BP1_pS65.R.V: 0.917
  RPPA X14.3.3.zeta.R.V: 0.934
  RPPA X14.3.3βR.V: 0.934
  RPPA X53BP1.R.V: 1.104
  RPPA b.Actin.R.C: 0.885
  RPPA b.Catenin.R.V: 0.881
  RPPA b.Catenin_pT41_S45.R.V: 1.099
  RPPA c.Abl.R.V: 1.227
  RPPA c.Abl_pY412.R.C: 1.133
  RPPA c.IAP2.R.C: 0.965
5W3
  RPPA A.Raf.R.V: 1.155
  RPPA A.Raf_pS299.R.C: 1.022
  RPPA ACC1.R.C: 0.834
  RPPA ACC_pS79.R.V: 0.685
  RPPA ACLY_pS455.R.V: 0.716
  RPPA ACSL1.R.V: 0.628
  RPPA ACVRL1.R.C: 0.953
  RPPA ADAR1.M.V: 1.141
  RPPA ALKBH5.R.V: 0.830
  RPPA AMPK.a2_pS345.R.V: 1.116
  RPPA AMPKa.R.C: 1.027
  RPPA AMPKa_pT172.R.C: 0.821
  RPPA AR.R.V: 1.102
  RPPA ARID1A.R.C: 1.193
  RPPA ASNS.R.V: 1.291
  RPPA ATM.R.V: 1.157
  RPPA ATM_pS1981.R.V: 0.939
  RPPA ATP5A.M.C: 0.233
  RPPA ATP5H.R.V: 0.791
  RPPA ATR.R.V: 0.960
  RPPA ATRX.R.C: 1.213
  RPPA ATR_pS428.R.C: 1.112
  RPPA AceCS1.R.V: 0.718
  RPPA Akt1.R.V: 0.726
  RPPA Akt1_pS473.R.V: 0.998
  RPPA Akt2.R.V: 0.876
  RPPA Akt2_pS474.R.C: 1.140
  RPPA Akt.R.V: 0.848
  RPPA Akt_pS473.R.V: 1.107
